The NIST ThermoML archive (doi:10.1016/j.jct.2016.04.014)
± gives the expanded uncertainty stated by the source.

Settings: Liquid, Vibrating tube method

CCCCCCC [heptane]
mass density [kg/m3]
Settings | 288.15 K | 293.15 K | 298.15 K | 303.15 K | 308.15 K | 313.15 K | 318.15 K | 323.15 K
100 kPa | 688.4 ± 1.7 | 684.2 ± 1.7 | 679.9 ± 1.7 | 675.7 ± 1.7 | 671.4 ± 1.7 | 667.1 ± 1.7 | 662.7 ± 1.7 | 658.3 ± 1.7
101 kPa | 688.33 ± 0.25 | 684.11 ± 0.25 | 679.87 ± 0.25 | 675.6 ± 0.25 | 671.31 ± 0.25 | 667 ± 0.25 | – | –
1000 kPa | 689.2 ± 1.7 | 685 ± 1.7 | 680.7 ± 1.7 | 676.5 ± 1.7 | 672.2 ± 1.7 | 668 ± 1.7 | 663.6 ± 1.7 | 659.3 ± 1.7
5000 kPa | 692.5 ± 1.7 | 688.4 ± 1.7 | 684.3 ± 1.7 | 680.2 ± 1.7 | 676 ± 1.7 | 672 ± 1.7 | 667.7 ± 1.7 | 663.5 ± 1.7
10000 kPa | 696.5 ± 1.7 | 692.6 ± 1.7 | 688.6 ± 1.7 | 684.6 ± 1.7 | 680.6 ± 1.7 | 676.7 ± 1.7 | 672.6 ± 1.7 | 668.6 ± 1.7
15000 kPa | 700.4 ± 1.7 | 696.5 ± 1.7 | 692.7 ± 1.7 | 688.9 ± 1.7 | 685 ± 1.7 | 681.2 ± 1.7 | 677.3 ± 1.7 | 673.4 ± 1.7
20000 kPa | 704.1 ± 1.8 | 700.4 ± 1.8 | 696.6 ± 1.8 | 693 ± 1.8 | 689.2 ± 1.8 | 685.5 ± 1.8 | 681.8 ± 1.8 | 678 ± 1.8
25000 kPa | 707.7 ± 1.8 | 704 ± 1.8 | 700.4 ± 1.8 | 696.8 ± 1.8 | 693.2 ± 1.8 | 689.6 ± 1.8 | 686 ± 1.8 | 682.4 ± 1.8
30000 kPa | 711.1 ± 1.8 | 707.5 ± 1.8 | 704 ± 1.8 | 700.5 ± 1.8 | 697 ± 1.8 | 693.5 ± 1.8 | 690 ± 1.8 | 686.5 ± 1.8
35000 kPa | 714.3 ± 1.8 | 710.9 ± 1.8 | 707.4 ± 1.8 | 704 ± 1.8 | 700.6 ± 1.8 | 697.2 ± 1.8 | 693.8 ± 1.8 | 690.4 ± 1.8
40000 kPa | 717.4 ± 1.8 | 714 ± 1.8 | 710.7 ± 1.8 | 707.4 ± 1.8 | 704 ± 1.8 | 700.7 ± 1.8 | 697.4 ± 1.8 | –
45000 kPa | 720.3 ± 1.8 | 717 ± 1.8 | 713.8 ± 1.8 | 710.5 ± 1.8 | 707.2 ± 1.8 | 704 ± 1.8 | 700.7 ± 1.8 | –
50000 kPa | 723.1 ± 1.8 | 719.9 ± 1.8 | 716.7 ± 1.8 | 713.5 ± 1.9 | 710.3 ± 1.9 | 707.1 ± 1.9 | 703.9 ± 1.9 | –
55000 kPa | 725.8 ± 1.9 | 722.5 ± 1.9 | 719.4 ± 1.9 | 716.2 ± 1.9 | 713.1 ± 1.9 | 709.9 ± 1.9 | 706.8 ± 1.9 | –
60000 kPa | 728.2 ± 1.9 | 725.1 ± 1.9 | 721.9 ± 1.9 | 718.8 ± 1.9 | 715.7 ± 1.9 | 712.6 ± 1.9 | 709.5 ± 1.9 | –
